Experiments:
[1] = molecular target: T1, human α1G T-type channels (Homo sapiens, UniProt O43497); test: T-type calcium channel block, whole cell patch clamp (α1G); format: cell-based; settings: HEK cells stably expressing human α1G; mainly non-inactivated protocol; values above 10 μM represented as 10 μM, values below 0.30 μM represented as 0.30 μM
T1 construct: expressed in transfected cells; host or cells: HEK 293
Procedure, shortened: (§1)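 Resting block was measured mainly with the non-inactivated protocol: holding potential −110 mV, 1 s step to −100 mV, then a 50 ms test pulse at −40 mV. Recordings used stably transfected human α1G or α1H HEK293 lines, with compounds perfused in external solution containing 0.1-0.01% DMSO. IC50 values (μM) above 10 μM are reported as 10 μM.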

[2] = molecular target: T2, human α1H T-type channels (Homo sapiens, UniProt O95180); test: T-type calcium channel block, whole cell patch clamp (α1H); format: cell-based; settings: HEK cells stably expressing human α1H; mainly non-inactivated protocol; values above 10 μM represented as 10 μM
T2 construct: expressed in transfected cells; host or cells: HEK 293
Procedure, shortened: as §1

[3] = tested on: spinal nerve ligation model of neuropathic pain; settings: rats; Dogrul et al., Pain (2003); cited from earlier work
[4] = tested on: T-type over L-type channels; settings: cited from earlier work

T2 sequence (O95180 whole entry): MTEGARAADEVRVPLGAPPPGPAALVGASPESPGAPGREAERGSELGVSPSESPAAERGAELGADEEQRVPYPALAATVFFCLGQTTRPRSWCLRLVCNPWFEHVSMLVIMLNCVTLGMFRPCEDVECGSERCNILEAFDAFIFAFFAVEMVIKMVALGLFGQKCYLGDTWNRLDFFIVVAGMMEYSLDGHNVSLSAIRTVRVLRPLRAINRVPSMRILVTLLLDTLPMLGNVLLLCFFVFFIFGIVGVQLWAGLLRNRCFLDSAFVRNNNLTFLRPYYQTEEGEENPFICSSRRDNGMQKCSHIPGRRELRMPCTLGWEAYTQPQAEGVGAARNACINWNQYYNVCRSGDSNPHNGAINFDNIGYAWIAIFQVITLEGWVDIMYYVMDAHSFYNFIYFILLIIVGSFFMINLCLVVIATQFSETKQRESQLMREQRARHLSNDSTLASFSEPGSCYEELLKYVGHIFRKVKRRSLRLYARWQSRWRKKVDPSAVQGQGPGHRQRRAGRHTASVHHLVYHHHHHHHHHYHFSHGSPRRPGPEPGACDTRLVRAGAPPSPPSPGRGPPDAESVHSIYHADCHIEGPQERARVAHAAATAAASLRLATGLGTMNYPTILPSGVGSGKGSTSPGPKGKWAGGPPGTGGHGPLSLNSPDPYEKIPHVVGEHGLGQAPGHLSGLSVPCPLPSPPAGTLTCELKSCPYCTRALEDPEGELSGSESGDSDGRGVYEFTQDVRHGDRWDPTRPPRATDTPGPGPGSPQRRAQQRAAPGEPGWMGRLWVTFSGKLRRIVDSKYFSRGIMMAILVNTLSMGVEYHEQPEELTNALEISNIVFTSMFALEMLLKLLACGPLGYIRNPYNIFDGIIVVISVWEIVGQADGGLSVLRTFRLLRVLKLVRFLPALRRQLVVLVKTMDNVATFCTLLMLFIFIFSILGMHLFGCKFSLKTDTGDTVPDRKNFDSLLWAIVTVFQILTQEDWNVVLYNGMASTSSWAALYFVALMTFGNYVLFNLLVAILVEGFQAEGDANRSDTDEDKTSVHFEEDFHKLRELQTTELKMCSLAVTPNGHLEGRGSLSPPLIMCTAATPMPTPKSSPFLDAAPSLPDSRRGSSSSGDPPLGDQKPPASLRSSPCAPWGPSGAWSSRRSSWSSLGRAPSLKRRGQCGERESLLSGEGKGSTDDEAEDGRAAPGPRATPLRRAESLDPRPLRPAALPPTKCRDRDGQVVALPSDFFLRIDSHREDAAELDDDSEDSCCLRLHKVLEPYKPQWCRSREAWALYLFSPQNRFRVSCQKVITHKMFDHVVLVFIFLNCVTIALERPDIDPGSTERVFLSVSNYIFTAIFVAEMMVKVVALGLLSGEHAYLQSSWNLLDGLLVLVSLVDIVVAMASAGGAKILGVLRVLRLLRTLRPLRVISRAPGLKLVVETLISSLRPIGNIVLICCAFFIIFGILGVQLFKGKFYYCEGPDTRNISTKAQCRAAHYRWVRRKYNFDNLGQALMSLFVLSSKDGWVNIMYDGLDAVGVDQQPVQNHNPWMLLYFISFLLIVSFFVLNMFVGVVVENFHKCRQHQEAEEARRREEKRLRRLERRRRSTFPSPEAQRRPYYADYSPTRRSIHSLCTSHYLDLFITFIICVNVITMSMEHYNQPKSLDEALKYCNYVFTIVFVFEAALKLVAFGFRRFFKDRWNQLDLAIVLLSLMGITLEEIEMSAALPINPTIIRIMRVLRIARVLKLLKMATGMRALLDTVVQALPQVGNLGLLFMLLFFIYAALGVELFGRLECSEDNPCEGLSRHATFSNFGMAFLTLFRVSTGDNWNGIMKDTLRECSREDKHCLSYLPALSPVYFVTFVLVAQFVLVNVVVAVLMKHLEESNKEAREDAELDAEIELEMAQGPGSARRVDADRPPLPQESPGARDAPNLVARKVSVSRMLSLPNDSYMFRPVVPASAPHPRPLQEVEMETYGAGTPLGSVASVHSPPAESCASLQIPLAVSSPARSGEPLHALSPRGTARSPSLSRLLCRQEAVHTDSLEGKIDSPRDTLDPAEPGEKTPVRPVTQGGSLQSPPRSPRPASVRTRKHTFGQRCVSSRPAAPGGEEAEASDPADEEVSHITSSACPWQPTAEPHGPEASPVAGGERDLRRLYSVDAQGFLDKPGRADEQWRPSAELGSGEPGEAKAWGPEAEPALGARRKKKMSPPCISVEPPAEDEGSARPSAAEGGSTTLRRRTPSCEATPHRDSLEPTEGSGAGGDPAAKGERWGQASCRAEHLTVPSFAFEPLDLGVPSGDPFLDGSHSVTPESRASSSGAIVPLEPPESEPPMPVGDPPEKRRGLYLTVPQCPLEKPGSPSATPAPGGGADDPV
T1 sequence (O43497 whole entry): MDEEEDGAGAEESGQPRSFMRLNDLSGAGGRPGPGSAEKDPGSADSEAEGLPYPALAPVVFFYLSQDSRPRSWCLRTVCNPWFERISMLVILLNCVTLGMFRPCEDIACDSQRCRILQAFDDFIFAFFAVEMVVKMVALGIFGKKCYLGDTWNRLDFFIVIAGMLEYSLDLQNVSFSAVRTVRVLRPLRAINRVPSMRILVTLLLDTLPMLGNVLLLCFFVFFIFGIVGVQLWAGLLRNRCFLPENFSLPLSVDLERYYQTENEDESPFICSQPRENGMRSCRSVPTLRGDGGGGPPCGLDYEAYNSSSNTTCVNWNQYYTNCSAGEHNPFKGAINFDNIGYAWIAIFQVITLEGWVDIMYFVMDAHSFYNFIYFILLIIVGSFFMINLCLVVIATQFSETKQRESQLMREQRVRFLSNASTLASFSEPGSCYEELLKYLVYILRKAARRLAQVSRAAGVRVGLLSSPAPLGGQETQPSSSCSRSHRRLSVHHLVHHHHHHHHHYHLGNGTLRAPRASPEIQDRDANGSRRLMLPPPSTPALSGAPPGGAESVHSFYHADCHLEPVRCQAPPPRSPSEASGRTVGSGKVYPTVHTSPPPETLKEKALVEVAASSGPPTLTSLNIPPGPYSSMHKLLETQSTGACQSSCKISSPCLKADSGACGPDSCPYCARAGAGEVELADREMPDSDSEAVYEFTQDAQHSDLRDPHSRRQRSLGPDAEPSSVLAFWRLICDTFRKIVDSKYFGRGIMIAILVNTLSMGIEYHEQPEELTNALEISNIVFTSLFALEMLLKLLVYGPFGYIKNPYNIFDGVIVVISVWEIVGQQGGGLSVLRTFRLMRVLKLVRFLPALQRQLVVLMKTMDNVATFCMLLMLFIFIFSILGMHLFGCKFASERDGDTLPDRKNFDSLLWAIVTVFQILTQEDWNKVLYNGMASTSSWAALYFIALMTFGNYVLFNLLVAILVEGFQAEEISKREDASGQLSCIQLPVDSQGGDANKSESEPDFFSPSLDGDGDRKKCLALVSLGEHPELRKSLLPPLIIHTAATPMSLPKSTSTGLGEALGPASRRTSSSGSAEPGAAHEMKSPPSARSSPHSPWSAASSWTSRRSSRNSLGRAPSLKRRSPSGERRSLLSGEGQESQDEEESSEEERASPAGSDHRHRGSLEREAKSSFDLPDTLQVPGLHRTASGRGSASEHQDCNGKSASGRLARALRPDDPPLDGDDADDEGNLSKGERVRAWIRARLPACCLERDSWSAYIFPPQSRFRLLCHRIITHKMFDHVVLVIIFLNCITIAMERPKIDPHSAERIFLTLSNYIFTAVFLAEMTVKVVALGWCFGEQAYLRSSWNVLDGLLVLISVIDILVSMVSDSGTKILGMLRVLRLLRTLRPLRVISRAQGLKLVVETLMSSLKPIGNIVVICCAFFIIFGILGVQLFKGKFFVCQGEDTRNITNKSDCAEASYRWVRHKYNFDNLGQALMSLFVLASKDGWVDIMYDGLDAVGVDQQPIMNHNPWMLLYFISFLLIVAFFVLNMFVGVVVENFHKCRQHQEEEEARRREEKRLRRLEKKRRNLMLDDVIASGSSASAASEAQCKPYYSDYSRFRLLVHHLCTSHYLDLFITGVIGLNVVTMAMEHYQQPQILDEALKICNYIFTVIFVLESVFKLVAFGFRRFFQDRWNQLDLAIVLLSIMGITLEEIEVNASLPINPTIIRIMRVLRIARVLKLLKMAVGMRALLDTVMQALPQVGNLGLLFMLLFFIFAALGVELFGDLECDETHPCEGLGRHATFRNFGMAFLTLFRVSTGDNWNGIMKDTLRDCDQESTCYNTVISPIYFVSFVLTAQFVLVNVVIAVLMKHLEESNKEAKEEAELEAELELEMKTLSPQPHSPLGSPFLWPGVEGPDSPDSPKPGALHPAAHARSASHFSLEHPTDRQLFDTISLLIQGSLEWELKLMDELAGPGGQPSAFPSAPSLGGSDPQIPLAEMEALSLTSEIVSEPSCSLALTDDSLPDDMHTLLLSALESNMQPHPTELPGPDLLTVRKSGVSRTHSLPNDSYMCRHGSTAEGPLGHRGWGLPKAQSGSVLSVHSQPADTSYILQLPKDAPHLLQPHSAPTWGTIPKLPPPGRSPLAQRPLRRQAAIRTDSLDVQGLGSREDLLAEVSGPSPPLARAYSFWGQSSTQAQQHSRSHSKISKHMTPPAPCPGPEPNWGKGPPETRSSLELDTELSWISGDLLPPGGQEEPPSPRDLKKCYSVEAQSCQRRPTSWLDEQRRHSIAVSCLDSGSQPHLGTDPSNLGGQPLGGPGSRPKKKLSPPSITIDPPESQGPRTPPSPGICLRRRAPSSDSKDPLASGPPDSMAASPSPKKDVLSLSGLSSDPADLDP

IC50 [1]	IC50 [2]	SMILES	anti-hyperalgesic activity in the spinal nerve ligation model [3]	fold selective for T-type over L-type channels [4]
3400 nM	400 nM	CC1(C)COCCN1C(=O)CN[C@H]1CC[C@@H](CNC(=O)c2cc(F)cc(Cl)c2)CC1 [Compound 194, 3-chloro-N-(((1s,4s)-4-(2-(3,3-dimethylmorpholino)-2-oxoethylamino)cyclohexyl)methyl)-5-fluorobenzamide]	–	–
1100 nM	170 nM	CC1(C)CCCN1C(=O)CN[C@H]1CC[C@@H](CNC(=O)c2cc(F)cc(Cl)c2)CC1 [Compound 195, 3-chloro-N-(((1s,4s)-4-(2-(2,2-dimethylpyrrolidin-1-yl)-2-oxoethylamino)cyclohexyl)methyl)-5-fluorobenzamide]	–	–
1620 nM	210 nM	CN(C(=O)CN[C@H]1CC[C@@H](CNC(=O)c2cc(F)cc(Cl)c2)CC1)C(C)(C)C [Compound 196, N-(((1s,4s)-4-(2-(tert-butyl(methyl)amino)-2-oxoethylamino)cyclohexyl)methyl)-3-chloro-5-fluorobenzamide]	–	–
1940 nM	260 nM	COc1cc(F)cc(C(=O)NC[C@H]2CC[C@@H](NCC(=O)NC3(C)CCC3)CC2)c1 [Compound 197, 3-fluoro-5-methoxy-N-(((1s,4s)-4-(2-(1-methylcyclobutylamino)-2-oxoethylamino)cyclohexyl)methyl)benzamide]	–	–
9920 nM	630 nM	COc1cc(F)cc(C(=O)NC[C@H]2CC[C@@H](NCC(=O)N3CCOCC3(C)C)CC2)c1 [Compound 198, N-(((1s,4s)-4-(2-(3,3-dimethylmorpholino)-2-oxoethylamino)cyclohexyl)methyl)-3-fluoro-5-methoxybenzamide]	–	–
3800 nM	350 nM	COc1cc(F)cc(C(=O)NC[C@H]2CC[C@@H](NCC(=O)N3CCCC3(C)C)CC2)c1 [Compound 199, N-(((1s,4s)-4-(2-(2,2-dimethylpyrrolidin-1-yl)-2-oxoethylamino)cyclohexyl)methyl)-3-fluoro-5-methoxybenzamide]	–	–
3350 nM	470 nM	COc1cc(F)cc(C(=O)NC[C@H]2CC[C@@H](NCC(=O)N(C)C(C)(C)C)CC2)c1 [Compound 200, N-(((1s,4s)-4-(2-(tert-butyl(methyl)amino)-2-oxoethylamino)cyclohexyl)methyl)-3-fluoro-5-methoxybenzamide]	–	–
1800 nM	570 nM	CC(C)(C)NC(=O)CN[C@H]1CC[C@H](CNC(=O)c2cc(F)cc(Cl)c2)CC1 [Compound 201, N-(((1r,4r)-4-(2-(tert-butylamino)-2-oxoethylamino)cyclohexyl)methyl)-3-chloro-5-fluorobenzamide]	–	–
970 nM	310 nM	CC1(NC(=O)CN[C@H]2CC[C@H](CNC(=O)c3cc(F)cc(Cl)c3)CC2)CCC1 [Compound 202, 3-chloro-5-fluoro-N-(((1r,4r)-4-(2-(1-methylcyclobutylamino)-2-oxoethylamino)cyclohexyl)methyl)benzamide]	–	–
6130 nM	2160 nM	CC1(C)COCCN1C(=O)CN[C@H]1CC[C@H](CNC(=O)c2cc(F)cc(Cl)c2)CC1 [Compound 203, 3-chloro-N-(((1r,4r)-4-(2-(3,3-dimethylmorpholino)-2-oxoethylamino)cyclohexyl)methyl)-5-fluorobenzamide]	–	–
1580 nM	650 nM	CC1(C)CCCN1C(=O)CN[C@H]1CC[C@H](CNC(=O)c2cc(F)cc(Cl)c2)CC1 [Compound 204, 3-chloro-N-(((1r,4r)-4-(2-(2,2-dimethylpyrrolidin-1-yl)-2-oxoethylamino)cyclohexyl)methyl)-5-fluorobenzamide]	–	–
2020 nM	1100 nM	CN(C(=O)CN[C@H]1CC[C@H](CNC(=O)c2cc(F)cc(Cl)c2)CC1)C(C)(C)C [Compound 205, N-(((1r,4r)-4-(2-(tert-butyl(methyl)amino)-2-oxoethylamino)cyclohexyl)methyl)-3-chloro-5-fluorobenzamide]	–	–
4420 nM	1030 nM	COc1cc(F)cc(C(=O)NC[C@H]2CC[C@H](NCC(=O)NC(C)(C)C)CC2)c1 [Compound 206, N-(((1r,4r)-4-(2-(tert-butylamino)-2-oxoethylamino)cyclohexyl)methyl)-3-fluoro-5-methoxybenzamide]	–	–
3820 nM	920 nM	COc1cc(F)cc(C(=O)NC[C@H]2CC[C@H](NCC(=O)NC3(C)CCC3)CC2)c1 [Compound 207, 3-fluoro-5-methoxy-N-(((1r,4r)-4-(2-(1-methylcyclobutylamino)-2-oxoethylamino)cyclohexyl)methyl)benzamide]	–	–
≥ 10000 nM	4330 nM	COc1cc(F)cc(C(=O)NC[C@H]2CC[C@H](NCC(=O)N3CCOCC3(C)C)CC2)c1 [Compound 208, N-(((1r,4r)-4-(2-(3,3-dimethylmorpholino)-2-oxoethylamino)cyclohexyl)methyl)-3-fluoro-5-methoxybenzamide]	–	–
4050 nM	1600 nM	COc1cc(F)cc(C(=O)NC[C@H]2CC[C@H](NCC(=O)N3CCCC3(C)C)CC2)c1 [Compound 209, N-(((1r,4r)-4-(2-(2,2-dimethylpyrrolidin-1-yl)-2-oxoethylamino)cyclohexyl)methyl)-3-fluoro-5-methoxybenzamide]	–	–
5610 nM	2390 nM	COc1cc(F)cc(C(=O)NC[C@H]2CC[C@H](NCC(=O)N(C)C(C)(C)C)CC2)c1 [Compound 210, N-(((1r,4r)-4-(2-(tert-butyl(methyl)amino)-2-oxoethylamino)cyclohexyl)methyl)-3-fluoro-5-methoxybenzamide]	–	–
1180 nM	540 nM	CN(C(=O)CN[C@H]1CC[C@H](CNC(=O)c2cc(F)cc(Cl)c2)CC1)C1(C)CCC1 [Compound 211, 3-chloro-5-fluoro-N-(((1r,4r)-4-(2-(methyl(1-methylcyclobutyl)amino)-2-oxoethylamino)cyclohexyl)methyl)benzamide]	–	–
1580 nM	420 nM	COCC(C)(C)N(C)C(=O)CN[C@H]1CC[C@@H](CNC(=O)c2cc(F)cc(Cl)c2)CC1 [Compound 212, 3-chloro-5-fluoro-N-(((1s,4s)-4-(2-((1-methoxy-2-methylpropan-2-yl)(methyl)amino)-2-oxoethylamino)cyclohexyl)methyl)benzamide]	–	–
1030 nM	330 nM	CN(C(=O)CN[C@H]1CC[C@@H](CNC(=O)c2cc(F)cc(Cl)c2)CC1)C1(C)CCC1 [Compound 213, 3-chloro-5-fluoro-N-(((1s,4s)-4-(2-(methyl(1-methylcyclobutyl)amino)-2-oxoethylamino)cyclohexyl)methyl)benzamide]	–	–
5820 nM	710 nM	COCC(C)(C)N(C)C(=O)CN[C@H]1CC[C@@H](CNC(=O)c2cc(F)cc(OC)c2)CC1 [Compound 214, 3-fluoro-5-methoxy-N-(((1s,4s)-4-(2-((1-methoxy-2-methylpropan-2-yl)(methyl)amino)-2-oxoethylamino)cyclohexyl)methyl)benzamide]	–	–
1990 nM	410 nM	COc1cc(F)cc(C(=O)NC[C@H]2CC[C@@H](NCC(=O)N(C)C3(C)CCC3)CC2)c1 [Compound 215, 3-fluoro-5-methoxy-N-(((1s,4s)-4-(2-(methyl(1-methylcyclobutyl)amino)-2-oxoethylamino)cyclohexyl)methyl)benzamide]	–	–
–	–	COCC(=O)O[C@]1(CCN(C)CCCc2nc3ccccc3[nH]2)CCc2cc(F)ccc2[C@@H]1C(C)C [Mibefradil]	anti-hyperalgesic activity	10-30 fold
–	–	CCC1(C)CC(=O)NC1=O (centres unmarked) [ethosuximide]	anti-hyperalgesic activity	–
